From patent publication US10259847B2, “Beta-hairpin peptidomimetics” (POLYPHOR AG, priority 2014, dated 2019)
Where two headings read alike, the source gives them in different places. Where a SMILES comes first, the peptide text is derived from it. Bridges are numbered along the chain shown (N, C = ends). [ ]: non-standard residue; d: D form. Tle = CC(C)(C)[C@H](N)C(=O)O; dDab = NCC[C@@H](N)C(=O)O; Orn = NCCC[C@H](N)C(=O)O; Dab = NCC[C@H](N)C(=O)O; Dap = NC[C@H](N)C(=O)O

Legend:
Format in all cases: cell-based
[1] = tested on: Escherichia coli ATCC 25922
Procedure: (§1) Stock solutions were kept at +4° C., light protected.
(§2) The selective antimicrobial activities of the peptides were determined in 96-well plates (Greiner, polystyrene) by the standard NCCLS broth microdilution method (National Committee for Clinical Laboratory Standards 1993. Methods for dilution antimicrobial susceptibility tests for bacteria that grow aerobically, 3rd ed. Approved standard M7-A6; National Committee for Clinical laboratory standards, Wayne, Pa.) with slight modifications. Inocula of the microorganisms were diluted into Mueller-Hinton II (MH, cation adjusted) broth and compared with a 0.5 McFarland standard to give appr. 10^6 colony forming units (CFU)/mL. Aliquots (90 μl) of inoculate were added to 10 μl of MH broth+P-80 (Polysorbate 80, 0.002% final concentration) containing the peptide in serial two-fold dilutions. The following microorganisms were used to determine antibiotic selectivity of the peptides: Escherichia coli ATCC 25922, Klebsiella pneumoniae ATCC 13883 and Acinetobacter baumannii DSM 30008.

[2] = tested on: Klebsiella pneumoniae ATCC 13883
Procedure: as §1, §2

[3] = tested on: Acinetobacter baumannii DSM 30008
Procedure: as §1, §2

[4] = tested on: human red blood cells (hRBC); experiment: Hemolysis of human red blood cells
Procedure: as §1
Percent hemolysis was calculated as follows: (OD540peptide/OD540H2O)×100%.

[5] = Mueller-Hinton broth II, 0.002% P-80, 18-20 hours at 35° C.

SMILES	Escherichia coli ATCC 25922 MIC ([1]; ATCC 25922) [µg/mL]	Klebsiella pneumoniae ATCC 13883 MIC ([2]; ATCC 13883) [µg/mL]	Acinetobacter baumannii DSM 30008 MIC ([3]; DSM 30008) [µg/mL]	Hemolysis at 100 μg/mL ([4]; red cells of human, 1 h, 100) [%]	Escherichia coli ATCC 25922 MIC [1, 5] [µg/mL]	Klebsiella pneumoniae ATCC 13883 MIC [2, 5] [µg/mL]	Acinetobacter baumannii DSM 30008 MIC [3, 5] [µg/mL]	Hemolysis at 100 μg/mL ([4]; 100 μg/mL, 20% hRBC (v/v), 1 h at 37° C.) [%]
CC(C)[C@@H]1NC(=O)[C@@H]2CCCN2C(=O)[C@H]2CCCN2C(=O)[C@H](Cc2c[nH]cn2)NC(=O)[C@@H]2CC(=O)NCC[C@H](NC1=O)C(=O)N[C@@H](Cc1ccc(O)cc1)C(=O)N[C@@H](CCN)C(=O)N[C@@H]([C@@H](C)O)C(=O)N[C@@H](CCN)C(=O)N[C@@H](CCN)C(=O)N[C@@H](Cc1c[nH]c3ccccc13)C(=O)N[C@@H](CCN)C(=O)N[C@@H](C(C)(C)C)C(=O)N2 [Example 17, cyclo(-Val-Dab-Tyr-Dab-Thr-Dab-Dab-Trp-Dab-tBuGly-Asp-His-^DPro-Pro-)] (HELM PEPTIDE1{V.[Dab].Y.[Dab].T.[Dab].[Dab].W.[Dab].[CC(C)(C)[C@H](N[*:1])C(=O)[*:2]].D.H.[dP].P}$PEPTIDE1,PEPTIDE1,2:R3-11:R3|PEPTIDE1,PEPTIDE1,1:R1-14:R2$$$V2.0)	2	2	4	1				
CC(C)C[C@@H]1NC(=O)[C@@H]2CCCN2C(=O)[C@H]2CCCN2C(=O)[C@H](CO)NC(=O)[C@@H]2CC(=O)NC[C@H](NC1=O)C(=O)N[C@@H](Cc1ccc(O)cc1)C(=O)N[C@@H](CCN)C(=O)N[C@@H](CCCN)C(=O)N[C@H](CCN)C(=O)N[C@@H](CCN)C(=O)N[C@@H](Cc1c[nH]c3ccccc13)C(=O)N[C@@H](CCN)C(=O)N[C@@H](C(C)(C)C)C(=O)N2 [Example 36, cyclo(-Leu-Dap-Tyr-Dab-Orn-^DDab-Dab-Trp-Dab-tBuGly-Asp-Ser-^DPro-Pro-)] (cyclo(L[Dap]Y[Dab][Orn][dDab][Dab]W[Dab][Tle]DS[dP]P); lactam 2-11)	0.5	0.125	1.5	4.5				
CC(C)[C@@H]1NC(=O)[C@@H]2CCCN2C(=O)[C@H]2CCCN2C(=O)[C@H](CO)NC(=O)[C@@H]2CC(=O)NCC[C@H](NC1=O)C(=O)N[C@@H](Cc1ccc(O)cc1)C(=O)N[C@@H](CCN)C(=O)N[C@@H](CCN)C(=O)N[C@H](CCN)C(=O)N[C@@H](CCN)C(=O)N[C@@H](Cc1c[nH]c3ccccc13)C(=O)N[C@@H](CCN)C(=O)N[C@@H](c1ccccc1)C(=O)N2 [Example 16, cyclo(-Val-Dab-Tyr-Dab-Dab-^DDab-Dab-Trp-Dab-Phg-Asp-Ser-^DPro-Pro-)] (HELM PEPTIDE1{V.[Dab].Y.[Dab].[Dab].[NCC[C@@H](N[*:1])C(=O)[*:2]].[Dab].W.[Dab].[Phg].D.S.[dP].P}$PEPTIDE1,PEPTIDE1,2:R3-11:R3|PEPTIDE1,PEPTIDE1,1:R1-14:R2$$$V2.0)	0.5	0.5	1	1				
CC(C)C[C@@H]1NC(=O)[C@@H]2CCCN2C(=O)[C@H]2CCCN2C(=O)[C@H](CO)NC(=O)[C@@H]2CCCCNC(=O)C[C@H](NC1=O)C(=O)N[C@@H](Cc1ccc(O)cc1)C(=O)N[C@@H](CCN)C(=O)N[C@@H](CCCN)C(=O)N[C@@H](CCN)C(=O)N[C@@H](CCN)C(=O)N[C@@H](Cc1c[nH]c3ccccc13)C(=O)N[C@@H](CCN)C(=O)N[C@@H](C(C)(C)C)C(=O)N2 [Example 25, cyclo(-Leu-Asp-Tyr-Dab-Orn-Dab-Dab-Trp-Dab-tBuGly-Lys-Ser-^DPro-Pro-)] (HELM PEPTIDE1{L.D.Y.[Dab].[Orn].[Dab].[Dab].W.[Dab].[CC(C)(C)[C@H](N[*:1])C(=O)[*:2]].K.S.[dP].P}$PEPTIDE1,PEPTIDE1,2:R3-11:R3|PEPTIDE1,PEPTIDE1,1:R1-14:R2$$$V2.0)	1	1	2	0				
CC(C)[C@@H]1NC(=O)[C@@H]2CCCN2C(=O)[C@H]2CCCN2C(=O)[C@H]([C@@H](C)O)NC(=O)[C@@H]2CSSC[C@H](NC1=O)C(=O)N[C@@H](Cc1ccc(O)cc1)C(=O)N[C@@H](CCN)C(=O)N[C@@H](CN)C(=O)N[C@@H](CCN)C(=O)N[C@@H](CCN)C(=O)N[C@@H](Cc1c[nH]c3ccccc13)C(=O)N[C@@H](CCN)C(=O)N[C@@H](C(C)(C)C)C(=O)N2 [Example 8, cyclo(-Val-Cys-Tyr-Dab-Dap-Dab-Dab-Trp-Dab-tBuGly-Cys-Thr-^DPro-Pro-)] (HELM PEPTIDE1{V.C.Y.[Dab].[NC[C@H](N[*:1])C(=O)[*:2]].[Dab].[Dab].W.[Dab].[CC(C)(C)[C@H](N[*:1])C(=O)[*:2]].C.T.[dP].P}$PEPTIDE1,PEPTIDE1,2:R3-11:R3|PEPTIDE1,PEPTIDE1,1:R1-14:R2$$$V2.0)					1	0.5	2	1
CC(C)C[C@@H]1NC(=O)[C@H]2CCCN2C(=O)[C@H](CO)NC(=O)[C@H](C)NC(=O)[C@H](C(C)(C)C)NC(=O)[C@H](CCN)NC(=O)[C@H](Cc2c[nH]c3ccccc23)NC(=O)[C@H](CCN)NC(=O)[C@@H](CCN)NC(=O)[C@H](CCCN)NC(=O)[C@H](CCN)NC(=O)[C@H](Cc2ccc(O)cc2)NC(=O)[C@H](CN)NC(=O)[C@H](Cc2ccccc2)NC1=O [Example 42, cyclo(-Phe-Dap-Tyr-Dab-Orn-^DDab-Dab-Trp-Dab-tBuGly-Ala-Ser-^DPro-Leu-)] (cyclo(AS[dP]LF[Dap]Y[Dab][Orn][dDab][Dab]W[Dab][Tle]))	1	1	4	1				
CC(C)C[C@@H]1NC(=O)[C@H](CCN)NC(=O)[C@H]2CCCN2C(=O)[C@H](C(C)C)NC(=O)[C@@H]2CSSC[C@H](NC1=O)C(=O)N[C@@H](Cc1ccc(O)cc1)C(=O)N[C@@H](C)C(=O)N[C@@H](CCN)C(=O)N[C@H](CCN)C(=O)N[C@@H](CCN)C(=O)N[C@@H](Cc1c[nH]c3ccccc13)C(=O)N[C@@H](C)C(=O)N[C@@H](C(C)C)C(=O)N2 [Example 2, cyclo(-Leu-Cys-Tyr-Ala-Dab-^DDab-Dab-Trp-Ala-Val-Cys-Val-^DPro-Dab-)] (HELM PEPTIDE1{A.[Dab].[NCC[C@@H](N[*:1])C(=O)[*:2]].[Dab].W.A.V.C.V.[dP].[Dab].L.C.Y}$PEPTIDE1,PEPTIDE1,8:R3-13:R3|PEPTIDE1,PEPTIDE1,1:R1-14:R2$$$V2.0)	2	2	2.5	3				
C[C@@H]1NC(=O)[C@H](C(C)(C)C)NC(=O)[C@H](CCN)NC(=O)[C@H](Cc2c[nH]c3ccccc23)NC(=O)[C@H](CCN)NC(=O)[C@@H](CCN)NC(=O)[C@H](CCCN)NC(=O)[C@H](CCN)NC(=O)[C@H](Cc2ccc(O)cc2)NC(=O)[C@H](CN)NC(=O)[C@H](Cc2ccccc2)NC(=O)[C@H](Cc2ccccc2)NC(=O)[C@H]2CCCN2C(=O)[C@H](CO)NC1=O [Example 43, cyclo(-Phe-Dap-Tyr-Dab-Orn-^DDab-Dab-Trp-Dab-tBuGly-Ala-Ser-^DPro-Phe-)] (cyclo(AS[dP]FF[Dap]Y[Dab][Orn][dDab][Dab]W[Dab][Tle]))	1	0.25	1	1				
CC(C)C[C@@H]1NC(=O)[C@@H]2CCCN2C(=O)[C@H]2CCCN2C(=O)[C@H](CO)NC(=O)[C@@H]2CCNC(=O)C[C@H](NC1=O)C(=O)N[C@@H](Cc1ccc(O)cc1)C(=O)N[C@@H](CCN)C(=O)N[C@@H](CCCN)C(=O)N[C@H](CCN)C(=O)N[C@@H](CCN)C(=O)N[C@@H](Cc1c[nH]c3ccccc13)C(=O)N[C@@H](CCN)C(=O)N[C@@H](C(C)(C)C)C(=O)N2 [Example 22, cyclo(-Leu-Asp-Tyr-Dab-Orn-^DDab-Dab-Trp-Dab-tBuGly-Dab-Ser-^DPro-Pro-)] (HELM PEPTIDE1{L.D.Y.[Dab].[Orn].[NCC[C@@H](N[*:1])C(=O)[*:2]].[Dab].W.[Dab].[CC(C)(C)[C@H](N[*:1])C(=O)[*:2]].[Dab].S.[dP].P}$PEPTIDE1,PEPTIDE1,2:R3-11:R3|PEPTIDE1,PEPTIDE1,1:R1-14:R2$$$V2.0)	0.5	0.5	1	1.5				
CC(C)C[C@@H]1NC(=O)[C@@H]2CCCN2C(=O)[C@H]2CCCN2C(=O)[C@H](CO)NC(=O)[C@@H]2CCCCNC(=O)C[C@H](NC1=O)C(=O)N[C@@H](Cc1ccc(O)cc1)C(=O)N[C@@H](CCN)C(=O)N[C@@H](CCCN)C(=O)N[C@H](CCN)C(=O)N[C@@H](CCN)C(=O)N[C@@H](Cc1c[nH]c3ccccc13)C(=O)N[C@@H](CCN)C(=O)N[C@@H](C(C)(C)C)C(=O)N2 [Example 24, cyclo(-Leu-Asp-Tyr-Dab-Orn-^DDab-Dab-Trp-Dab-tBuGly-Lys-Ser-^DPro-Pro-)] (HELM PEPTIDE1{L.D.Y.[Dab].[Orn].[NCC[C@@H](N[*:1])C(=O)[*:2]].[Dab].W.[Dab].[CC(C)(C)[C@H](N[*:1])C(=O)[*:2]].K.S.[dP].P}$PEPTIDE1,PEPTIDE1,2:R3-11:R3|PEPTIDE1,PEPTIDE1,1:R1-14:R2$$$V2.0)	0.5	0.5	1	0.5				
